# Laboratory results: patent US11485751B2, “Apramycin derivatives” (WAYNE STATE UNIVERSITY, priority 2017, dated 2022)
# Columns and labels:
# [1] = test system: Engineered E. coli pH425 rmtB; assay: Activity against G1405-methylated 16S-rRNA, E. coli pH425 rmtB; assay type: cell-based
# Excerpt: (§1) Minimal inhibitory concentrations (MIC) have been determined by broth microdilution assays (CLSI. Methods for Dilution Antimicrobial Susceptibility Tests for Bacteria That Grow Aerobically; Approved Standard—Tenth Edition. CLSI document M07-A10. Wayne, Pa.: Clinical and Laboratory Standards Institute; 2015.).
# [2] = test system: Engineered E. coli pH430 WT; assay: Activity, engineered E. coli pH430 WT; assay type: cell-based; set-up: unit not given here; conditions: wild type
# Procedure, shortened: (§2)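 CLSI M07-A10 broth microdilution method used; values reported are minimal inhibitory concentrations.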
# [3] = test system: human cytosolic ribosomes; assay: in-vitro translation assay, human cytosolic ribosomes; assay type: biochemical
# Excerpt: (§3) IC50 values for bacterial, human chimeric, and rabbit reticulocyte ribosomes have been determined by in-vitro translation assays as described previously (Proc. Nat. Ac. Sci USA 2012, 109(27):10984-10989).
# (§4) Minimal inhibitory concentrations (MICs, […]) against clinical isolates from Institute of Medical Microbiology, Univ. Zurich, and the IC50 values for bacterial, human mitochondrial and human cytosolic ribosomes are indicated.
# [4] = test system: AG212, Escherichia coli ATCC25922; assay: MIC reference strain AG212; assay type: cell-based; conditions: reference strain ATCC25922
# Procedure, shortened: (§5)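 MICs by broth microdilution following CLSI M07-A10.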
# AG001 E. coli WT = assay: Antibacterial activity, clinical isolate AG001; assay type: cell-based; set-up: unit not given here
# Procedure, shortened: (§6)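 MICs determined by broth microdilution following CLSI M07-A10 (2015) against clinical isolates.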
# AG003 E. coli AAC(3)-II = assay: Antibacterial activity, clinical isolate AG003; assay type: cell-based; set-up: unit not given here
# Excerpt: as §1
# (§7) Table 4 and 5 show the antibacterial activity of the compounds of the invention against bacterial reference strains (table 4) and against representative clinical isolates (table 5).
# AG163 E. coli APH(3′)-I = assay: Antibacterial activity, clinical isolate AG163; assay type: cell-based; set-up: unit not given here
# Excerpt: as §1, §7
# [5] = test system: clinical isolates carrying APH(3′)-VI; assay: MIC broth microdilution, APH(3′)-VI; assay type: cell-based; conditions: IMM Univ. Zurich
# Excerpt: as §1, §4
# bacterial ribosomes = assay: in-vitro translation assay, bacterial ribosomes; assay type: biochemical
# Excerpt: as §3, §4
# [6] = test system: AG042 MRSA AAC(6′)-I ANT(4′)-I APH(2′); assay: Antibacterial activity, clinical isolate AG042; assay type: cell-based; set-up: unit not given here
# Excerpt: as §1, §7
# [7] = test system: AG039 MRSA AAC(6′)-I ANT(4′)-I; assay: Antibacterial activity, clinical isolate AG039; assay type: cell-based
# Excerpt: as §1, §7
# [8] = test system: AG215, Klebsiella pneumonia; assay: MIC reference strain AG215; assay type: cell-based; conditions: reference strain
# Procedure, shortened: as §5
# AG173 E. coli AAC(3)-IV = assay: Antibacterial activity, clinical isolate AG173; assay type: cell-based
# Excerpt: as §1, §7
# [9] = test system: Engineered E. coli pH427 rmtF; assay: Activity against G1405-methylated 16S-rRNA, E. coli pH427 rmtF; assay type: cell-based
# Excerpt: as §1
# AG031 P. aer. APH(3′)-II = assay: Antibacterial activity, clinical isolate AG031; assay type: cell-based; set-up: unit not given here
# Procedure, shortened: as §6
# [10] = test system: AG220, Pseudomonas aeruginosa ATCC27853; assay: MIC reference strain AG220; assay type: cell-based
# Procedure, shortened: as §5
# [11] = test system: clinical isolates carrying APH(3′)-II; assay: MIC broth microdilution, APH(3′)-II; assay type: cell-based; conditions: clinical isolates, IMM Univ. Zurich; APH(3′)-II; read-out: MIC APH(3′)-II
# Excerpt: as §1, §4
# ATCC19977 M. abcessus = assay: MIC reference strain ATCC19977; assay type: cell-based
# Procedure, shortened: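 Reported as MIC; method was a CLSI-conforming microdilution in broth.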
# [12] = test system: AG225, Acinetobacter baumannii pittii; assay: MIC reference strain AG225; assay type: cell-based; conditions: reference strain
# Procedure, shortened: as §5
# [13] = test system: Engineered E. coli AG103 armA; assay: Activity against G1405-methylated 16S-rRNA, E. coli AG103 armA; assay type: cell-based
# Excerpt: as §1
# [14] = test system: Engineered E. coli pH426 rmtC; assay: Activity against G1405-methylated 16S-rRNA, E. coli pH426 rmtC; assay type: cell-based
# Excerpt: as §1
# [15] = test system: clinical isolates carrying APH(3′)-I; assay: MIC broth microdilution, APH(3′)-I; assay type: cell-based; conditions: IMM Univ. Zurich
# Excerpt: as §1, §4
# AG038 MRSA = assay: Antibacterial activity, clinical isolate AG038; assay type: cell-based; set-up: unit not given here
# Procedure, shortened: as §6
# [16] = test system: human mitochondrial ribosomes; assay: in-vitro translation assay, human mitochondrial (human chimeric) ribosomes; assay type: biochemical
# Excerpt: as §3, §4
# [17] = test system: clinical isolates carrying AAC(3)-IV; assay: MIC broth microdilution, AAC(3)-IV; assay type: cell-based
# Excerpt: as §1, §4
# (§8) Minimal inhibitory concentrations (μg/ml) against clinical isolates from Institute of Medical Microbiology, Univ. Zurich, and the IC50 values for bacterial, human mitochondrial and human cytosolic ribosomes are indicated.
# (§9) The Minimal inhibitory concentrations (MICs, μg/ml) against clinical isolates from Institute of Medical Microbiology, Univ Zurich, and the IC50 values for bacterial, human mitochondrial and human cytosolic ribosomes are indicated.
# [18] = test system: AG033 P. aer. APH(3′)-II AAC(6′)-I; assay: Antibacterial activity, clinical isolate AG033; assay type: cell-based; set-up: unit not given here
# Excerpt: as §1, §7
# [19] = test system: Engineered E. coli pH424 armA; assay: Activity against G1405-methylated 16S-rRNA, E. coli pH424 armA; assay type: cell-based
# Procedure, shortened: as §2
# AG032 P. aer. APH(3′)-II = assay: Antibacterial activity, clinical isolate AG032; assay type: cell-based; set-up: unit not given here
# Excerpt: as §1, §7
# AG055 E. coli WT = assay: Antibacterial activity, clinical isolate AG055; assay type: cell-based; set-up: unit not given here
# Excerpt: as §1, §7
# [20] = test system: AG290, Enterobacter cloacae; assay: MIC reference strain AG290; assay type: cell-based; conditions: reference strain
# Procedure, shortened: as §5
# [21] = test system: A baum. AG227 APH(3′)-I armA; assay: Activity against G1405-methylated 16S-rRNA, clinical isolate AG227; assay type: cell-based
# Excerpt: as §1
# [22] = test system: SZ380, Mycobacterium smegmatis; assay: MIC reference strain SZ380; assay type: cell-based; conditions: reference strain
# Excerpt: as §1, §7
# Legend to Tables: GEN, gentamicin; AMK, amikacin; PLZ, plazomicin; APR, apramycin; AG212, Escherichia coli ATCC25922; AG215, Klebsiella pneumonia; AG220, Pseudomonas aeruginosa ATCC27853; AG225, Acinetobacter baumannii pittii; AG290, Enterobacter cloacae; […], Mycobacterium smegmatis. MICs for AG192 have been determined in the presence of 0.5 μg/mL of ampicillin in the medium to mimic the synergistic effect of aminoglycoside and β-lactam antibiotics combination therapy in the treatment of Enterococcus infections in humans.
# [23] = test system: Enterob. AG302 AAC(3)-II AAC(6′)-I rmtC; assay: Activity against G1405-methylated 16S-rRNA, clinical isolate AG302; assay type: cell-based
# Excerpt: as §1
# WT clinical isolates = assay: MIC broth microdilution, WT; assay type: cell-based; conditions: clinical isolates, IMM Univ. Zurich; wild type
# Excerpt: as §1, §4, §8, §9
# [24] = test system: E. coli AG153 AAC(3)-II APH(3′)-II rmtB; assay: Activity against G1405-methylated 16S-rRNA, clinical isolate AG153; assay type: cell-based; set-up: unit not given here
# Excerpt: as §1
# isolates carrying apmA = assay: MIC broth microdilution, apmA; assay type: cell-based; conditions: apmA resistance gene
# Excerpt: as §1, with “2015.). […]” for “2015.).”
# as §8, §9
# [25] = test system: K. pneum. AG269 AAC(3)-II AAC(6′)-I rmtB; assay: Activity against G1405-methylated 16S-rRNA, clinical isolate AG269; assay type: cell-based
# Excerpt: as §1
SMILES,Activity E. coli pH425 rmtB [1],Activity E. coli pH430 WT [2],IC50 [3] [µM],Antibacterial activity AG001 E. coli WT (AG001 E. coli WT),Antibacterial activity AG003 E. coli AAC(3)-II (AG003 E. coli AAC(3)-II),Antibacterial activity AG163 E. coli APH(3′)-I (AG163 E. coli APH(3′)-I),IC50 (bacterial ribosomes) [µM],Antibacterial activity AG042 MRSA AAC(6′)-I ANT(4′)-I APH(2′) [6],Antibacterial activity AG039 MRSA AAC(6′)-I ANT(4′)-I [7],Antibacterial activity AG173 E. coli AAC(3)-IV (AG173 E. coli AAC(3)-IV),Activity E. coli pH427 rmtF [9],Antibacterial activity AG031 P. aer. APH(3′)-II (AG031 P. aer. APH(3′)-II),Activity E. coli AG103 armA [13],Activity E. coli pH426 rmtC [14],Antibacterial activity AG038 MRSA (AG038 MRSA),IC50 [16] [µM],Antibacterial activity AG033 P. aer. APH(3′)-II AAC(6′)-I [18],Activity E. coli pH424 armA [19],Antibacterial activity AG032 P. aer. APH(3′)-II (AG032 P. aer. APH(3′)-II),Antibacterial activity AG055 E. coli WT (AG055 E. coli WT),other results
"CNC1C(OC2OC(CO)C(N)C(O)C2O)OC2CC(N)C(OC3C(N)CC(N)C(O)C3OC3OC(CO)C(O)C3O)OC2C1O [DC131, 5-O—(β-D-Ribefuranosyl) apramycin]",4,4,319,16,16,8-16,0.11,64,64,16-32,4,64-128,1,4,64,295,128,2,64-128,16-32,"MIC ([4]; Escherichia coli, read-out: MIC AG212 E. coli): 8 µg/mL; MIC [5]: 4 µg/mL; MIC ([8]; Klebsiella pneumoniae, read-out: MIC AG215 K. pneumonia): 2 µg/mL; MIC ([10]; Pseudomonas aeruginosa, ATCC27853, reference strain ATCC27853, read-out: MIC AG220 P. aeruginosa): 64 µg/mL; MIC [11]: 8 µg/mL; MIC (ATCC19977 M. abcessus; read-out: MIC ATCC19977 M. abcessus): 16 µg/mL; MIC ([12]; Acinetobacter baumannii, read-out: MIC AG225 A. baumannii): 16 µg/mL; MIC [15]: 64 µg/mL; activity against the IMM clinical isolates carrying the gene for AAC(3)-IV [17]: no activity; MIC ([17]; clinical isolates, IMM Univ. Zurich, AAC(3)-IV, read-out: MIC AAC(3)-IV): > 32 µg/mL; MIC ([20]; Enterobacter cloacae, read-out: MIC AG290 E. cloacae): 4 µg/mL"
CNC1C(OC2OC(CO)C(N)C(O)C2O)OC2CC(N)C(OC3C(N)CC(NC(=O)C(O)CCN)C(O)C3O)OC2C1O (centres unmarked) [DC176],2,2,326,4,4,4,0.11,8,4-8,2-4,4,16,0.25-0.5,4,4-8,166,>32,2,32,8,"Activity A baum. AG227 APH(3′)-I armA [21]: 2; MIC SZ380 M. smegmatis [22]: 0.5 µg/mL; MIC AG212 E. coli [4]: 2 to 4 µg/mL; Activity Enterob. AG302 AAC(3)-II AAC(6′)-I rmtC [23]: 2; MIC WT (WT clinical isolates): 2 µg/mL; MIC AG215 K. pneumonia [8]: 2 µg/mL; Activity E. coli AG153 AAC(3)-II APH(3′)-II rmtB [24]: 4; MIC AG220 P. aeruginosa ([10]; reference strain ATCC27853): 16 µg/mL; MIC ATCC19977 M. abcessus (ATCC19977 M. abcessus; reference strain): 2 µg/mL; MIC AG225 A. baumannii [12]: 8 µg/mL; MIC AAC(3)-IV ([17]; clinical isolates, IMM Univ. Zurich, AAC(3)-IV): 4 µg/mL; MIC apmA (isolates carrying apmA): 16 µg/mL; Activity K. pneum. AG269 AAC(3)-II AAC(6′)-I rmtB [25]: 2; MIC AG290 E. cloacae [20]: 4 µg/mL"
